Reference: BindingDB's records for doi:10.1021/acsmedchemlett.6b00243 (Amgen, 2016)

Molecular target: Sodium channel protein type 5 subunit alpha (Homo sapiens, UniProt Q14524)
Test: Inhibition of human Nav1.5 expressed in HEK293 cells assessed as inhibition of sodium current at holding potential of -125 mV measured for 3 to 5 mins by whole cell voltage clamp method

Sodium channel protein type 5 subunit alpha, sequence (Q14524 whole entry): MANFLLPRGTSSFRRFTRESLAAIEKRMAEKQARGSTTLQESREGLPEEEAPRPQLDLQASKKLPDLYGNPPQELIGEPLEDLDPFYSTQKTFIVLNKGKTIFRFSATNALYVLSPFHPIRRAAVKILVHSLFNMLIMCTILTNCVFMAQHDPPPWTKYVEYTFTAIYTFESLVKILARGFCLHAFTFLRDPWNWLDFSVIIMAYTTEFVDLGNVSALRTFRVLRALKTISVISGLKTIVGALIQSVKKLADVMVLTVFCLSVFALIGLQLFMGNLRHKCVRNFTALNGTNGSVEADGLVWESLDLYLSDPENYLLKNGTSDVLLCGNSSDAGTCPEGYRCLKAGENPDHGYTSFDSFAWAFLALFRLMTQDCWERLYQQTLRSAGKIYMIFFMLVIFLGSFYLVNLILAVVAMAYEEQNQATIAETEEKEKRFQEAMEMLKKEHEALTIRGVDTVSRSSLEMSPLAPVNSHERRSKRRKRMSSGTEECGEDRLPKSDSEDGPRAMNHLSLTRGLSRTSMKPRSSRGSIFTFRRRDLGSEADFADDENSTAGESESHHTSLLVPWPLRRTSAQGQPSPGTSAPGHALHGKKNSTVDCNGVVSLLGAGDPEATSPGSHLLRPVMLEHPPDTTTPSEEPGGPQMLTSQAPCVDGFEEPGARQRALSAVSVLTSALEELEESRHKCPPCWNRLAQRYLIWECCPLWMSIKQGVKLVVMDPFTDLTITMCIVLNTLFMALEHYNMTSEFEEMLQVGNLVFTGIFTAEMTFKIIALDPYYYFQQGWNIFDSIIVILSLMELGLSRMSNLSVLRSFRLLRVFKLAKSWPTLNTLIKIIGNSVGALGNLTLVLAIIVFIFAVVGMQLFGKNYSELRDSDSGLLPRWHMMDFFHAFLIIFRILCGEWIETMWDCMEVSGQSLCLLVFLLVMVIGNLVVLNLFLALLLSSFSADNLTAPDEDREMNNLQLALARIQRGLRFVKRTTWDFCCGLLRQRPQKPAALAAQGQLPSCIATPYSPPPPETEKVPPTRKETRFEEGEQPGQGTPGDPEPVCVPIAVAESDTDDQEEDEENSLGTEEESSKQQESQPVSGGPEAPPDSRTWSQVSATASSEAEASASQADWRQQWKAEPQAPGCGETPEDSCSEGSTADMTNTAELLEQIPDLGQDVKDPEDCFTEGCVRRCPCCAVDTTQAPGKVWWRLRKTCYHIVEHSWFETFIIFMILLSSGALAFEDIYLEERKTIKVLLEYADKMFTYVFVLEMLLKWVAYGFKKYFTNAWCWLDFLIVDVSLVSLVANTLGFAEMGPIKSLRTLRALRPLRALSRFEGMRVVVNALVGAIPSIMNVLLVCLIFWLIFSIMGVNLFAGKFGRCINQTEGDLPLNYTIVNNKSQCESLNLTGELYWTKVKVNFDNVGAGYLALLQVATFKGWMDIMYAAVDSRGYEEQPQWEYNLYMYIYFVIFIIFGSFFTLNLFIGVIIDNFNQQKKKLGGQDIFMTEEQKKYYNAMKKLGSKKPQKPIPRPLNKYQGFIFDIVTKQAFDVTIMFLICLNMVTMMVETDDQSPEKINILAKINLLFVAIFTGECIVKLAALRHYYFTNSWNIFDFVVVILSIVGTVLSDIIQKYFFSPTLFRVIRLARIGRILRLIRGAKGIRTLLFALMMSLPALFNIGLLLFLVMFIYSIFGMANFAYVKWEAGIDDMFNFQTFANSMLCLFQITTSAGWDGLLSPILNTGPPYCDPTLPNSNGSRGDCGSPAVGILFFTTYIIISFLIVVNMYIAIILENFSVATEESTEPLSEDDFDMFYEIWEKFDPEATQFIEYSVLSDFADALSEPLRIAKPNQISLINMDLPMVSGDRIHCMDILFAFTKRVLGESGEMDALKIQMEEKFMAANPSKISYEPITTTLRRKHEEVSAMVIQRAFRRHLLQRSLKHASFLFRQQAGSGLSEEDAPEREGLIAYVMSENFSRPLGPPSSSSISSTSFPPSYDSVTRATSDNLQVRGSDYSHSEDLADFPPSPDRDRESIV

Structure (SMILES) | IC50 [µM]
COc1cc(C(F)(F)F)ccc1-c1cnnc2cc(S(=O)(=O)Nc3nccs3)ccc12 [US9012443, 259] | > 30
COc1cc(C(F)(F)F)ccc1-c1n[nH]c(=O)c2cc(S(=O)(=O)Nc3nccs3)ccc12 [US9012443, 293] | > 30
